This passage reports IC50 results from patent US20230250096A1, “SUBSTITUTED PHENYL-1H-PYRROLO[2,3-c] PYRIDINE DERIVATIVES” (Janssen Pharmaceutica NV, priority 2021, published 2023).

The subject of one assay is MEIS1 mRNA expression. Description: MEIS1 mRNA expression assay (Quantigene Singleplex) in MOLM14 cells. Type of assay: cell-based, human. To be noted: 48 hours incubation. The procedure, abridged: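 MOLM14 cells, 3,750/well, exposed to increasing compound concentrations for 48 h. MEIS1 mRNA measured by QuantiGene Singleplex branched-DNA hybridization (lysis 45 min, hybridization 18–22 h, both 55 °C), normalized to RPL28. IC50 fitted to background-corrected fold change versus DMSO.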

Assay [1] concerns the target T1, menin/MLL (terbium chelate-labeled menin, FITC-MBM1 peptide) (Homo sapiens, UniProt O00255, T541A).
T1 construct: Menin (a.a 1-610-6xhis tag, 2.3 mg/mL in 20 mM Hepes)
T1 sequence (O00255 with tags, fused parts or gaps T541A): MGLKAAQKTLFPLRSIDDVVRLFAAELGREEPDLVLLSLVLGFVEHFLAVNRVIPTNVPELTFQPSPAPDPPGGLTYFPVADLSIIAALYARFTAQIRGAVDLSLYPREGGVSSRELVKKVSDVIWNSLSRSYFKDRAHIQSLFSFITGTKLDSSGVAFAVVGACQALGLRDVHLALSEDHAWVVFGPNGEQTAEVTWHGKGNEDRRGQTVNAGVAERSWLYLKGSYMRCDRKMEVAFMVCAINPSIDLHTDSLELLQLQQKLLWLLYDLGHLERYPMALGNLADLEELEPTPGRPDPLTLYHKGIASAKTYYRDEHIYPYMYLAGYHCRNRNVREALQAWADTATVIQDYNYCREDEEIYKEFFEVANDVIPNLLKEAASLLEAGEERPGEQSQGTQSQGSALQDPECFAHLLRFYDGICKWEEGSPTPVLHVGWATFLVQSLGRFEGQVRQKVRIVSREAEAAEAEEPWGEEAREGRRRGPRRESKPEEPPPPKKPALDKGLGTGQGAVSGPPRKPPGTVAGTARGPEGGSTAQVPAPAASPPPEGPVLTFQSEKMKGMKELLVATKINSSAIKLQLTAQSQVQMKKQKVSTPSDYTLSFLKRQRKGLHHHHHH
Description: Menin/MLL homogenous time-resolved fluorescence (HTRF) assay. Conditions: 30 min incubation. Type of assay: binding. In a few lines: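 Terbium-labeled menin (a.a. 1-610, His-tagged; […]) pre-incubated 30 min with compound, then 75 nM FITC-MBM1 peptide added for 15 min at ambient temperature in Tris pH 7.5 buffer, 0.5% DMSO. HTRF 520/490 nm ratio read; IC50 from 11-point four-fold titrations, typically from 10 μM.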

Structures are written as SMILES.

Broadly, the IC50 is the midpoint of a concentration-inhibition curve.

As to `CC(=O)N1CC2CCC(N3CC(Cc4cn(-c5ccc(F)cc5C(=O)N(C)C(C)C)c5cncc(C)c45)C3)C2C1` (stereo not shown) [Compound 306], the IC50 amounted to 159 nM in the assay on MEIS1 mRNA expression (Homo sapiens, MOLM-14, 48 h) and 0.468 nM in assay [1].
In the case of `CC(=O)N1CCC(CN2CC[C@@H](Cc3cn(-c4ccc(F)cc4C(=O)N(C[C@@H](C)O)C(C)C)c4cncc(C)c34)C2)CC1` (single isomer, unassigned) [Compound 320a], the IC50 with MEIS1 mRNA expression (Homo sapiens, MOLM-14, 48 h) was 24 nM; in assay [1], 0.189 nM.
Turning to `Cc1cncc2c1c(CC1CCN(CC3CNC(=O)C3)CC1)cn2-c1ccc(F)cc1C(=O)N(C)C(C)C` (single isomer, unassigned) [Compound 186a], the IC50 with MEIS1 mRNA expression (Homo sapiens, MOLM-14, 48 h) came out at 419 nM; in assay [1], 0.447 nM.
Turning to `COC(=O)N1CCC(CN2CC[C@@H](Cc3cn(-c4ccc(F)cc4C(=O)N(C[C@@H](C)O)C(C)C)c4cncc(C)c34)C2)CC1` [Compound 336], the IC50 in the assay on MEIS1 mRNA expression (Homo sapiens, MOLM-14, 48 h) was determined as 33 nM; in assay [1], 0.128 nM.
On to `Cc1cncc2c1c(C[C@H]1CCN(C(CCCN3CCC(S(C)(=O)=O)CC3)C(C)C)C1)cn2-c1ccc(F)cc1C(=O)N(C)C(C)C` (mixture of isomers) [Compound 11], for which the IC50 stood at 6 nM with MEIS1 mRNA expression (Homo sapiens, MOLM-14, 48 h) and 0.034 nM in assay [1].
With `CC(=O)N1CCC(CN2CC[C@@H](Cc3cn(-c4ccc(F)cc4C(=O)N4C[C@@H](O)C[C@H]4C)c4cncc(C)c34)C2)CC1` [Compound 327], the IC50 with MEIS1 mRNA expression (Homo sapiens, MOLM-14, 48 h) is around 616 nM; in assay [1], 0.819 nM.
As for `CC(=O)N1CC2CC1C2C(C)N1CC(Cc2cn(-c3ccc(F)cc3C(=O)N(C)C(C)C)c3cncc(C)c23)C1` (stereo not shown) [Compound 304], the IC50 was above 1000 nM with MEIS1 mRNA expression (Homo sapiens, MOLM-14, 48 h) and 2.8 nM in assay [1].
As for `CCC1CCCN1C(=O)c1cc(F)ccc1-n1cc(C[C@@H]2CCN(CC3CCN(C(=O)C(C)(C)O)CC3)C2)c2c(C)cncc21` (stereo partly shown) [Compound 342], the IC50 was 107 nM in the assay on MEIS1 mRNA expression (Homo sapiens, MOLM-14, 48 h) and 0.188 nM in assay [1].
As to `Cc1cncc2c1c(C[C@@H]1CCN(CC3CCN(C(=O)C(C)C)CC3)C1)cn2-c1ccc(F)cc1C(=O)N1CC(O)CC1C` (stereo partly shown) [Compound 333], the half-inhibitory concentration (IC50) was around 394 nM with MEIS1 mRNA expression (Homo sapiens, MOLM-14, 48 h) and 0.251 nM in assay [1].
The like results for `CC(=O)N1CCC(CN2C[C@@H](Cc3cn(-c4ccc(F)cc4C(=O)N(C)C(C)C)c4cncc(C)c34)C[C@@H]2C)CC1` [Compound 133] were, in that order, 42 nM and 0.051 nM.
Turning to `CC(=O)N1C[C@@H]2CN(CCCC(C(C)C)N3CC[C@H](Cc4cn(-c5ccc(F)cc5C(=O)N(C)C(C)C)c5cncc(C)c45)C3)C[C@H]2C1` (mixture of isomers) [Compound 13], the IC50 is 6 nM with MEIS1 mRNA expression (Homo sapiens, MOLM-14, 48 h) and 0.124 nM in assay [1].
As for `CC(=O)NC1CCC(N2CC[C@H](Cc3cn(-c4ccc(F)cc4C(=O)N(C)C(C)C)c4cncc(C)c34)C2)CC1` (stereo partly shown) [Compound 210], the half-maximal inhibitory concentration (IC50) is above 1000 nM in the assay with MEIS1 mRNA expression and 0.602 nM in assay [1].
As for `CC[C@H]([C@H]1C[C@@H](N2C[C@H]3CN(C(C)=O)C[C@@H]3C2)C1)N1CC[C@H](Cc2cn(-c3ccc(F)cc3C(=O)N(C)C(C)C)c3cncc(Cl)c23)C1` (single isomer, unassigned) [Compound 27a], the half-maximal inhibitory concentration (IC50) in the assay on MEIS1 mRNA expression (Homo sapiens, MOLM-14, 48 h) is below 4.1 nM; in assay [1], 0.012 nM.
In the case of `CC(=O)N1CCC(C)(CN2CC[C@@H](Cc3cn(-c4ccc(F)cc4C(=O)N(CCO)C(C)C)c4cncc(C)c34)C2)CC1` [Compound 337], the half-inhibitory concentration (IC50) stood at 24 nM in the assay with MEIS1 mRNA expression (Homo sapiens, MOLM-14, 48 h) and 0.092 nM in assay [1].
`Cc1cncc2c1c(C[C@H]1CCN([C@@H](C)C3CCOCC3)C1)cn2-c1ccc(F)cc1[S@@](=N)(=O)C(C)C` (single isomer, unassigned) [Compound 183b]: the IC50 is around 2040 nM with MEIS1 mRNA expression (Homo sapiens, MOLM-14, 48 h) and 2.61 nM in assay [1].
For the molecule `Cc1cncc2c1c(CC1CCN(C[C@@H]3CNC(=O)C3)CC1)cn2-c1ccc(F)cc1C(=O)N(C)C(C)C` (single isomer, unassigned) [Compound 186b], the IC50 in the assay with MEIS1 mRNA expression (Homo sapiens, MOLM-14, 48 h) came out at 504 nM; in assay [1], 0.932 nM.
As for `CC(=O)NC(C)CN1CCC(Cc2cn(-c3ccc(F)cc3C(=O)N(C)C(C)C)c3cncc(C)c23)C1` (single isomer, unassigned) [Compound 119a], the values for the IC50 (in the assay with MEIS1 mRNA expression; in assay [1]) were above 1000 nM and 0.906 nM, respectively.
